Patent US5225607A, “Insecticidal ethers” (Imperial Chemical Industries PLC, priority 1985, dated 1993)

What was measured:
Format in all cases: in vivo
Heliothis virescens = test: whole plant or invertebrate; conditions: in Gossypium hirsutum, 72 h, read-out: grading of mortality, HV
Protocol: (§1) The activity of the Product was determined using a variety of insect and acarine pests. The Product was used in the form of liquid preparations containing 500, 250 or 100 parts per million (ppm) by weight of the Product. The preparations were made by dissolving the Product in acetone and diluting the solutions with water containing 0.01% by weight of a wetting agent sold under the trade name "LISSAPOL" NX until the liquid preparations contained the required concentratio of the Product. "Lissapol" is a Registered Trade Mark.
(§2) The test procedure adopted with regard to each pest was basically the same and comprised supporting a number of the pests on a medium which was usually a host plant or a foodstuff on which the pests feed, and treating either or both the pests and the medium with the preparations. The mortality of the pests was then assessed at periods usually varying from one to three days after the treatment.
(§3) The results of the tests are given in Table IV for each of the Products, at the rate in parts per million given in the second column as a grading of mortality designated as A, B or C wherein A indicates 80-100% mortality or knockdown (70-100% in the case of Spodoptera exigua), B indicates 50-79% mortality or knockdown (50-69% in the case of Spodoptera exigua) and C indicates less than 50% mortality or knockdown.
(§4) In Table IV the pest organism used is designated by a letter code and the pest species, the support medium or food, and the type and duration of test is given in Table III.

Musca domestica [1] = test: Insecticidal test, Musca domestica (houseflies - adults), contact; conditions: 24 h, cotton wool/sugar, 1 day, read-out: grading of mortality, MD
Protocol: as §1, §2, §3, §4

Diabrotica balteata = test: Insecticidal test, Diabrotica balteata (rootworm larvae), residual; conditions: 72 h, filter paper/maize seed, 3 days, read-out: grading of mortality, DB
Protocol: as §1, §2, §3, §4

Musca domestica [2] = test: Knockdown test, Musca domestica (houseflies - adults); conditions: cotton wool/sugar, 4 hours, read-out: grading of knockdown, MD/KD
Protocol: as §1, §2
In the case of the species Musca domestica (housefly), additional tests to determine the knockdown effect of the compounds were performed.
as §3, §4

Blattella germanica = test: Insecticidal test, Blattella germanica (cockroach nymphs), residual; conditions: 72 h, plastic pot, 3 days, read-out: grading of mortality, BG
Protocol: as §1, §2, §3, §4

Myzus persicae = test: Insecticidal test, Myzus persicae (aphids), contact; conditions: 72 h, Chinese Cabbage leaf, 3 days, read-out: grading of mortality, MP
Protocol: as §1, §2, §3, §4

Nilaparvata lugens = test: Insecticidal test, Nilaparvata lugens (brown planthopper), contact; conditions: 72 h, Cabbage leaf, 3 days, read-out: grading of mortality, NL
Protocol: as §1, §2, §3, §4

Tetranychus urticae = test: Insecticidal/acaricidal test, Tetranychus urticae (spider mites - adult), contact; conditions: 72 h, French bean leaf, 3 days, read-out: grading of mortality, TU
Protocol: as §1, §2, §3, §4

| Compound | mortality at 500 ppm (Heliothis virescens) [%] | mortality at 500 ppm (Musca domestica [1]) [%] | mortality at 500 ppm (Diabrotica balteata) [%] | pest or weed control at 500 ppm (Musca domestica [2]) [%] | mortality at 500 ppm (Blattella germanica) [%] | mortality at 500 ppm (Myzus persicae) [%] | mortality at 500 ppm (Nilaparvata lugens) [%] | mortality at 500 ppm (Tetranychus urticae) [%] | other results |
| --- | --- | --- | --- | --- | --- | --- | --- | --- | --- |
| CCOc1ccc(C(Cl)(COCc2cccc(-c3ccccc3)c2C)C(F)(F)F)cc1 (centres unmarked) [Compound 46, 1,1,1-Trifluoro-2-chloro-2-(4-ethoxyphenyl)-3-(2-methyl-3-phenylbenzyloxy)propane] | < 50 | < 50 | < 50 | 80 to 100 | < 50 | < 50 | < 50 | < 50 |  |
| Fc1ccc(COC=C(c2ccc(Cl)cc2)C(F)(F)F)cc1Oc1ccccc1 [Compound 458, 1,1,1-trifluoro-2-(4-chlorophenyl)-3-(3-phenoxy-4-fluorobenzyloxy)prop-2-ene] | 80 to 100 | 80 to 100 | 80 to 100 | 80 to 100 | 50 to 79 | < 50 | 80 to 100 | < 50 |  |
| Fc1ccc(COC=C(c2ccc3c(c2)CCC3)C(F)(F)F)cc1Oc1ccccc1 [Compound 459, 1,1,1-trifluoro-2-(5-indanyl)-3-(3-phenoxy-4-fluorobenzyloxy)prop-2-ene] | < 50 | < 50 | 80 to 100 | 50 to 79 | < 50 | < 50 | < 50 | 80 to 100 |  |
| OC(COCc1ccc(F)c(Oc2ccccc2)c1)(c1ccc2c(c1)CCC2)C(F)(F)F (centres unmarked) [Compound 124, 1,1,1-Trifluoro-2-(5-indanyl)-3-(3-phenoxy-4-fluorobenzyloxy)propan-2-ol] | < 50 | < 50 | < 50 | < 50 | < 50 | < 50 | < 50 | 80 to 100 |  |
| FC(F)(F)Oc1ccc(C(Cl)(COCc2cccc(Oc3ccccc3)c2)C(F)(F)F)cc1 (centres unmarked) [Compound 59, 1,1,1-Trifluoro-2-chloro-2-(4-trifluoromethoxyphenyl)-3-(3-phenoxybenzyloxy)propane] |  |  |  |  |  |  |  |  | mortality at 100 ppm (Heliothis virescens): 80 to 100%; mortality at 100 ppm (Musca domestica [1]): 80 to 100%; mortality at 100 ppm (Diabrotica balteata): 80 to 100%; pest or weed control at 100 ppm (Musca domestica [2]): 80 to 100%; mortality at 100 ppm (Blattella germanica): 80 to 100%; mortality at 100 ppm (Myzus persicae): < 50%; mortality at 100 ppm (Nilaparvata lugens): 80 to 100%; mortality at 100 ppm (Tetranychus urticae): 80 to 100% |
| CCOc1ccc(C(Cl)(COCc2cccc(Oc3ccccc3)c2)C(F)(F)F)cc1 (centres unmarked) [Compound 38, 1,1,1-trifluoro-2-chloro-2-(4-ethoxyphenyl)-3-(3-phenoxybenzyloxy)propane] |  |  |  |  |  |  |  |  | mortality at 100 ppm (Heliothis virescens): 80 to 100%; mortality at 100 ppm (Musca domestica [1]): 80 to 100%; mortality at 100 ppm (Diabrotica balteata): < 50%; pest or weed control at 100 ppm (Musca domestica [2]): < 50%; mortality at 100 ppm (Blattella germanica): 80 to 100%; mortality at 100 ppm (Myzus persicae): 80 to 100%; mortality at 100 ppm (Nilaparvata lugens): 50 to 79%; mortality at 100 ppm (Tetranychus urticae): < 50% |
| CCOc1ccc(C(COCc2ccc(F)c(Oc3ccc(Cl)cc3)c2)C(F)(F)F)cc1 (centres unmarked) [Compound 5, 1,1,1-Trifluoro-2-(4-ethoxyphenyl)-3-(3-(4-chlorophenoxy)4-fluorobenzyloxy)propane] | 80 to 100 | 80 to 100 | 80 to 100 | 80 to 100 | 80 to 100 | 80 to 100 | 80 to 100 | 50 to 79 |  |
| COc1ccc(C(COCc2cccc(Oc3ccccc3)c2)C(F)(F)F)cc1 (centres unmarked) [Compound 30, 1,1,1-Trifluoro-2-(4-methoxyphenyl)-3-(3-phenoxybenzyloxy)propane] | 80 to 100 | 80 to 100 | 80 to 100 | 80 to 100 | 80 to 100 | < 50 | 80 to 100 | < 50 |  |
| CCOc1ccc(C(COCc2cccc(Oc3ccc(Br)cc3)c2)C(F)(F)F)cc1 (centres unmarked) [Compound 9, 1,1,1-Trifluoro-2-(4-ethoxyphenyl)-3-(3-(4-bromophenoxy)benzyloxy)propane] |  |  |  |  |  |  |  |  | mortality at 250 ppm (Heliothis virescens): 80 to 100%; mortality at 250 ppm (Musca domestica [1]): 80 to 100%; mortality at 250 ppm (Diabrotica balteata): 80 to 100%; pest or weed control at 250 ppm (Musca domestica [2]): 80 to 100%; mortality at 250 ppm (Blattella germanica): 80 to 100%; mortality at 250 ppm (Myzus persicae): < 50%; mortality at 250 ppm (Nilaparvata lugens): < 50%; mortality at 250 ppm (Tetranychus urticae): 50 to 79% |
| CCOc1ccc(C(COCc2cccc(-c3ccccc3)c2C)C(F)(F)F)cc1 (centres unmarked) [Compound 7, 1,1,1-Trifluoro-2-(4-ethoxyphenyl)-3-(2-methyl-3-phenylbenzyloxy)propane] | < 50 | 80 to 100 | 80 to 100 | 80 to 100 | 80 to 100 | 80 to 100 | 80 to 100 | 80 to 100 |  |
| CCCc1ccc(C(COCc2ccc(F)c(Oc3ccccc3)c2)C(F)(F)F)cc1 (centres unmarked) [Compound 20, 1,1,1-Trifluoro-2-(4-n-propylphenyl)-3-(3-phenoxy-4-fluorobenzyloxy)propane] |  |  |  |  |  |  |  |  | mortality at 100 ppm (Heliothis virescens): 80 to 100%; mortality at 100 ppm (Musca domestica [1]): 80 to 100%; mortality at 100 ppm (Diabrotica balteata): 80 to 100%; pest or weed control at 100 ppm (Musca domestica [2]): 80 to 100%; mortality at 100 ppm (Blattella germanica): 80 to 100%; mortality at 100 ppm (Myzus persicae): 80 to 100%; mortality at 100 ppm (Nilaparvata lugens): 80 to 100%; mortality at 100 ppm (Tetranychus urticae): 80 to 100% |
| CCOc1ccc(C(Cl)(COCc2cccc(Oc3ccc(Cl)cc3)c2)C(F)(F)F)cc1 (centres unmarked) [Compound 42, 1,1,1-Trifluoro-2-chloro-2-(4-ethoxyphenyl)-3-(3-(4-chlorophenoxy)benzyloxy)propane] |  |  |  |  |  |  |  |  | mortality at 250 ppm (Heliothis virescens): 80 to 100%; mortality at 250 ppm (Musca domestica [1]): 80 to 100%; mortality at 250 ppm (Diabrotica balteata): 50 to 79%; pest or weed control at 250 ppm (Musca domestica [2]): 80 to 100%; mortality at 250 ppm (Blattella germanica): 80 to 100%; mortality at 250 ppm (Myzus persicae): 80 to 100%; mortality at 250 ppm (Nilaparvata lugens): 80 to 100%; mortality at 250 ppm (Tetranychus urticae): < 50% |
| CCOc1ccc(C(COCc2ccc(F)c(Oc3ccc(Br)cc3)c2)C(F)(F)F)cc1 (centres unmarked) [Compound 6, 1,1,1-Trifluoro-2-(4-ethoxyphenyl)-3-(3-(4-bromophenoxy)-4-fluorobenzyloxy)propane] | 80 to 100 | 80 to 100 | 80 to 100 | 80 to 100 | 80 to 100 | 80 to 100 | 80 to 100 | 80 to 100 |  |
| Fc1ccc(COCC(F)(c2ccc(Cl)cc2)C(F)(F)F)cc1Oc1ccccc1 (centres unmarked) [Compound 81, 1,1,1,2-tetrafluoro-2-(4-chlorophenyl)-3-(3-phenoxy-4-fluorobenzyloxy)propane] |  | 80 to 100 | 80 to 100 | 80 to 100 | 80 to 100 | 80 to 100 | 80 to 100 | < 50 |  |
| Fc1ccc(COCC(c2ccc(Cl)cc2)C(F)(F)F)cc1Oc1ccccc1 (centres unmarked) [Compound 15] |  | 80 to 100 | 80 to 100 | 80 to 100 | 80 to 100 | 80 to 100 | 80 to 100 | 80 to 100 |  |
| OC(COCc1ccc(F)c(Oc2ccccc2)c1)(c1ccc(Cl)cc1)C(F)(F)F (centres unmarked) [Compound 126, 1,1,1-Trifluoro-2-(4-chlorophenyl)-3-(3-phenoxy-4-fluorobenzyloxy)propan-2-ol] |  | < 50 | < 50 | 80 to 100 | < 50 | < 50 | < 50 | 80 to 100 |  |
